Measurements: patent publication US10517803B2, “Individual's sensitivity to fluoride poisoning” (priority 2017, dated 2019)

Tests used:
rats [1] = assay: Median lethal dose (LD50) orally in rats; assay type: in vivo; details: extrapolated from oral rat LD50 to a 100 kg adult
rats [2] = details: orally in rats; cited from earlier work
people = details: most people; cited from earlier work

| Structure (SMILES) | median lethal dose (LD50), corresponding amount for a 100 kg adult (rats [1]) [g] | median lethal dose (LD50) (rats [2]) [mg/kg] | highest level of daily nutrient intake likely to pose no risk of adverse health effects (people) [mg/day] |
| --- | --- | --- | --- |
| F[Si-2](F)(F)(F)(F)F.[Na+].[Na+] [sodium fluorosilicate] | 12.5 | 125 |  |
| F [Fluoride] |  |  | 10 |
